Literature values in patent US8017143B2, “Coating agent for drug releasing stent, preparation method thereof and drug releasing stent coated therewith” (Taewoong Medical Co., Ltd, priority 2007, dated 2011).

Settings: esophageal, prostate, rectal, bladder cancer, hepatic, central nervous system and brain tumors

Structure (SMILES): CC(=O)O[C@H]1C(=O)[C@@]2(C)[C@H]([C@H](OC(=O)c3ccccc3)[C@]3(O)C[C@H](OC(=O)[C@H](O)[C@@H](NC(=O)c4ccccc4)c4ccccc4)C(C)=C1C3(C)C)[C@]1(OC(C)=O)CO[C@@H]1C[C@@H]2O [taxol]
- therapeutic effects: excellent therapeutic effects
